tested on: inclusion of exon 7 of SMN2 into mRNA transcribed from the SMN2-A minigene; test: Fold Activation: luciferase reporter, SMN2-A minigene construct versus SMN2-G minigene construct, in stably transfected HEK293H cells; format: cell-based, human; details: ratio of First Activation using the SMN2-A construct divided by Second Activation using the SMN2-G construct
Text: In a specific embodiment, the first cell and the second cell are the same cell type. In some embodiments, the first cell and the second cell are the same cell type and are obtained from the same source or clone. In some embodiments, the first reporter gene and the second reporter gene are the same reporter gene. In other embodiments, the first reporter gene and second reporter gene are different reporter genes. A compound that increases the inclusion of exon 7 of SMN2 into mRNA transcribed from the SMN2 gene will result in a Fold Activation derived from a higher ratio of the First Activation:
[formula] [formula] [formula] In some embodiments, both the amount and activity of the first and second fusion proteins are detected. Accordingly, as used herein, the Fold Activation for a compound that modulates the inclusion of exon 7 of SMN2 into mRNA transcribed from the SMN2 gene is a ratio of the First Activation divided by the Second Activation.
The HEK293H cell line stably transfected with the SMN2-A minigene construct was utilized in the HTS. HTS was performed by plating 10,000 cells in each well of a 384-well plate. Each 384-well plate contained 64 control wells used as an internal standard: 16 wells were used as a total control (no test compound, only compound solvent), 16 wells were used as reference standards representing background readings (high inhibitor concentration) and 32 wells were prepared to provide an 8-point dose response curve of puromycin as a non-specific standard control inhibitor. The remaining 320 wells contained individual test compounds. The cells were grown overnight in the presence of test compounds or controls at 37° C. in 5% CO2. After 24 hours, the amount of luminescence was determined using a ViewLux Imaging system (Perkin Elmer).
Using the SMN2-A minigene construct, a HTS was performed testing a compound library. The amount of the fusion protein expressed from the minigene construct was determined by measuring luciferase activity as described herein. […] Enhancers of fusion protein expression were defined as those compounds that increased luciferase activity by at least three standard deviations above the mean. Based on this analysis, test compounds of Formula (I) were identified as hits and were subsequently confirmed by testing the compounds under the same conditions as in the original HTS. To ensure that the increase in luciferase activity detected in the HTS was due to increased inclusion of exon 7 of SMN2 into mRNA transcripts from the SMN2-A minigene construct, each compound was tested in two different cell lines: the cell line, which was used in the original HTS (HEK293H containing the SMN2-A minigene construct), and a HEK293H cell line that contained the SMN2-G minigene construct.
Each compound was tested at four concentrations: 15 μM, 3 μM, 0.6 μM, 0.12 μM.
The Fold Activation results are provided as a ratio of a First Activation using the SMN-2A construct divided by a Second Activation using the SMN-2G construct, wherein 1 star (*) represents active compounds with a fold increase ratio between 1.1-1.3; 2 stars (**) represent active compounds with a fold increase ratio between 1.3-2.0; 3 stars (***) represent active compounds with a fold increase ratio greater than 2.0.

SMILES	Activity (Fold Activation)
Cc1ccc2nc(-c3cccc(C(=O)O)c3)oc2c1 [Cpd 2, 3-(6-methyl-benzooxazol-2-yl)-benzoic acid]	* (1 star (*) represents active compounds with a fold increase ratio between 1.1-1.3)
CC(C)(C)c1ccc2oc(-c3cccc(C(=O)O)c3)nc2c1 [Cpd 6, 3-(5-tert-butyl-benzooxazol-2-yl)-benzoic acid]	** (2 stars (**) represent active compounds with a fold increase ratio between 1.3-2.0)
O=C(O)c1cccc(-c2nc3ccc(Cn4ccnc4)cc3o2)c1 [Cpd 8, 3-(6-imidazol-1-ylmethyl-benzooxazol-2-yl)-benzoic acid]	** (2 stars (**) represent active compounds with a fold increase ratio between 1.3-2.0)
Cc1ccc2nc(-c3ccc(C(=O)O)cc3)oc2c1 [Cpd 11, 4-(6-methyl-benzooxazol-2-yl)-benzoic acid]	** (2 stars (**) represent active compounds with a fold increase ratio between 1.3-2.0)
O=C(O)c1ccc2nc(-c3ccc(-c4ccccc4)cc3)oc2c1 [Cpd 18, 2-biphenyl-4-yl-benzooxazole-6-carboxylic acid]	* (1 star (*) represents active compounds with a fold increase ratio between 1.1-1.3)
O=C(O)c1ccc2oc(-c3ccc(-c4ccccc4)cc3)nc2c1 [Cpd 19, 2-biphenyl-4-yl-benzooxazole-5-carboxylic acid]	** (2 stars (**) represent active compounds with a fold increase ratio between 1.3-2.0)
Cc1ccc2oc(-c3cccc(C(=O)O)c3)nc2c1 [Cpd 21, 3-(5-methyl-benzooxazol-2-yl)-benzoic acid]	*** (3 stars (***) represent active compounds with a fold increase ratio greater than 2.0)
CCC(C)(C)c1ccc2oc(-c3cccc(C(=O)O)c3)nc2c1 [Cpd 22, 3-[5-(1,1-dimethyl-propyl)-benzooxazol-2-yl]-benzoic acid]	** (2 stars (**) represent active compounds with a fold increase ratio between 1.3-2.0)
O=C(O)c1cccc(-c2nc3ccc(-c4ccccc4)cc3o2)c1 [Cpd 23, 3-(6-Phenyl-benzooxazol-2-yl)-benzoic acid]	* (1 star (*) represents active compounds with a fold increase ratio between 1.1-1.3)
CC(C)c1ccc(-c2nc3cc(C(=O)O)ccc3o2)cc1 [Cpd 24, 2-(4-isopropyl-phenyl)-benzooxazole-5-carboxylic acid]	*** (3 stars (***) represent active compounds with a fold increase ratio greater than 2.0)
O=C(O)c1ccc2oc(-c3ccc4c(c3)OCO4)nc2c1 [Cpd 26, 2-benzo[1,3]dioxol-5-yl-benzooxazole-5-carboxylic acid]	** (2 stars (**) represent active compounds with a fold increase ratio between 1.3-2.0)
O=C(O)c1ccc2oc(-c3ccc(N4CCCC4=O)cc3)nc2c1 [Cpd 28, 2-[4-(2-oxo-pyrrolidin-1-yl)-phenyl]-benzooxazole-5-carboxylic acid]	** (2 stars (**) represent active compounds with a fold increase ratio between 1.3-2.0)
O=C(O)c1cccc(-c2nc3cc(-c4ccc(OC(F)(F)F)cc4)ccc3o2)c1 [Cpd 29, 3-[5-(4-trifluoromethoxy-phenyl)-benzooxazol-2-yl]-benzoic acid]	** (2 stars (**) represent active compounds with a fold increase ratio between 1.3-2.0)
O=C(O)c1cccc(-c2nc3cc(-c4ccc(F)c(F)c4)ccc3o2)c1 [Cpd 30, 3-[5-(3,4-difluoro-phenyl)-benzooxazol-2-yl]-benzoic acid]	** (2 stars (**) represent active compounds with a fold increase ratio between 1.3-2.0)
O=C(O)c1cccc(-c2nc3cc(-c4cc5ccccc5o4)ccc3o2)c1 [Cpd 31, 3-(5-benzofuran-2-yl-benzooxazol-2-yl)-benzoic acid]	** (2 stars (**) represent active compounds with a fold increase ratio between 1.3-2.0)
COc1ccc2oc(-c3cccc(C(=O)O)c3)nc2c1 [Cpd 32, 3-(5-methoxy-benzooxazol-2-yl)-benzoic acid]	*** (3 stars (***) represent active compounds with a fold increase ratio greater than 2.0)

SMILES	Activity (Fold Activation)
O=C(O)c1ccc2oc(-c3ccc(Br)cc3)nc2c1 [Cpd 35, 2-(4-bromo-phenyl)-benzooxazole-5-carboxylic acid]	** (2 stars (**) represent active compounds with a fold increase ratio between 1.3-2.0)
CC(C)c1ccc(-c2ccc3oc(-c4cccc(C(=O)O)c4)nc3c2)cc1 [Cpd 36, 3-[5-(4-isopropyl-phenyl)-benzooxazol-2-yl]-benzoic acid]	** (2 stars (**) represent active compounds with a fold increase ratio between 1.3-2.0)
Cc1cc(C)cc(-c2ccc3oc(-c4cccc(C(=O)O)c4)nc3c2)c1 [Cpd 37, 3-[5-(3,5-dimethyl-phenyl)-benzooxazol-2-yl]-benzoic acid]	* (1 star (*) represents active compounds with a fold increase ratio between 1.1-1.3)
Cc1ccc(-c2nc3cc(C(=O)O)ccc3o2)cc1 [Cpd 38, 2-p-tolyl-benzooxazole-5-carboxylic acid]	*** (3 stars (***) represent active compounds with a fold increase ratio greater than 2.0)
COc1ccc(-c2nc3cc(C(=O)O)ccc3o2)cc1 [Cpd 39, 2-(4-methoxy-phenyl)-benzooxazole-5-carboxylic acid]	** (2 stars (**) represent active compounds with a fold increase ratio between 1.3-2.0)
O=C(O)c1cccc(-c2nc3ccc(N4CCCCC4)cc3o2)c1 [Cpd 41, 3-(6-piperidin-1-yl-benzooxazol-2-yl)-benzoic acid]	*** (3 stars (***) represent active compounds with a fold increase ratio greater than 2.0)
O=C(O)c1cccc(-c2nc3ccc(N4CCOCC4)cc3o2)c1 [Cpd 42, 3-(6-morpholin-4-yl-benzooxazol-2-yl)-benzoic acid]	** (2 stars (**) represent active compounds with a fold increase ratio between 1.3-2.0)
O=C(O)c1cccc(-c2nc3cc(N4CCCC4)ccc3o2)c1 [Cpd 43, 3-(5-pyrrolidin-1-yl-benzooxazol-2-yl)-benzoic acid]	** (2 stars (**) represent active compounds with a fold increase ratio between 1.3-2.0)
O=C(O)c1cccc(-c2nc3ccc(-n4cccn4)cc3o2)c1 [Cpd 44, 3-(6-pyrazol-1-yl-benzooxazol-2-yl)-benzoic acid]	** (2 stars (**) represent active compounds with a fold increase ratio between 1.3-2.0)
CN1CCN(c2ccc3nc(-c4cccc(C(=O)O)c4)oc3c2)CC1 [Cpd 48, 3-[6-(4-methyl-piperazin-1-yl)-benzooxazol-2-yl]-benzoic acid]	* (1 star (*) represents active compounds with a fold increase ratio between 1.1-1.3)
O=C(O)c1ccc2oc(-c3ccc(N4CCOCC4)cc3)nc2c1 [Cpd 51, 2-(4-morpholin-4-yl-phenyl)-benzooxazole-5-carboxylic acid]	** (2 stars (**) represent active compounds with a fold increase ratio between 1.3-2.0)
O=C(O)c1cccc(-c2nc3ccc(N4CCC4)cc3o2)c1 [Cpd 52, 3-(6-azetidin-1-yl-benzooxazol-2-yl)-benzoic acid]	** (2 stars (**) represent active compounds with a fold increase ratio between 1.3-2.0)
O=C(O)c1ccc2oc(-c3ccc(NCCCCl)cc3)nc2c1 [Cpd 54, 2-[4-(3-chloro-propylamino)-phenyl]-benzooxazole-5-carboxylic acid]	** (2 stars (**) represent active compounds with a fold increase ratio between 1.3-2.0)
O=C(O)c1ccc2oc(-c3ccc(F)cc3)nc2c1 [Cpd 55, 2-(4-fluoro-phenyl)-benzooxazole-5-carboxylic acid]	* (1 star (*) represents active compounds with a fold increase ratio between 1.1-1.3)
O=C(O)c1ccc2oc(-c3ccc(N4CCC4)cc3)nc2c1 [Cpd 57, 2-(4-azetidin-1-yl-phenyl)-benzooxazole-5-carboxylic acid]	** (2 stars (**) represent active compounds with a fold increase ratio between 1.3-2.0)
O=C(O)c1ccc2nc(-c3ccco3)oc2c1 [Cpd 65, 2-furan-2-yl-benzooxazole-6-carboxylic acid]	** (2 stars (**) represent active compounds with a fold increase ratio between 1.3-2.0)
